Patent publication US7351695B2, “Topiramate salts and compositions comprising and methods of making and using the same” (Ortho-McNeil Pharmaceuticals, Inc., priority 2002, dated 2008)
Several values for one entry are separate records, joined by “and”; a condition that tells them apart may be missing. Equal values may be shown once. Read-outs that look alike come from different tables or passages of the source.

What was measured:
[1] = Oral pharmacokinetics in rats, capsules by gavage, plasma by LC/MS/MS; type: in vivo, male Sprague-Dawley rats; details: rat
[2] = pH of an aqueous solution (pH meter); type: physicochemical; details: 400 mg/mL solution in distilled water
[3] = Estimation of solubility: minimum solvent needed to dissolve a known amount; type: physicochemical; details: for Solubility (amount of solid in mL of solvent): sodium trihydrate
Protocol: The solubility of the topiramate sodium trihydrate prepared in this example in water, ethanol, methanol, and THF was estimated by determining the minimum amount of solvent necessary to dissolve a known amount of the compound. In general, a predetermined amount of the compound was placed in a small glass vial, and then solvent was added drop-wise at room temperature until no visible solid remained in the vial.

[4] = Chemical stability by HPLC analysis of stored samples; type: physicochemical
[5] = Dissolution curves in 0.01 N HCl; type: physicochemical; details: for state at the end of the dissolution experiment: nominal about 110 mM (37 mg/mL free acid concentration)
Source text: FIG. 6 provides results of a comparison between the aqueous solubility of topiramate sodium trihydrate with that of topiramate. […] Independently, a set of dissolution curves were obtained in 0.01 N HCl (representative of a modestly acidic stomach), and these are shown in FIG. 7.

[6] = Physical stability by TGA and PXRD at preset temperature and relative humidity; type: physicochemical; details: for Physical stability result (solid form): 2 weeks
Protocol: A further study on physical stability of a sample from this example was conducted in glass vials at preset temperatures and controlled relative humidities. The humidities stored at room temperature were controlled using saturated salt solutions (see H. Nyquist, Pharm. Tech. 4(2):47-48 (1983)). At other temperatures, the oven configurations allowed humidity control. After 2 weeks, samples at various conditions were tested by TGA and PXRD to assess whether the crystalline topiramate sodium trihydrate remained intact or not. The data in Table 3 summarize findings after 2 weeks of incubation.

[7] = tested on: kindled seizures; details: rats; cited from earlier work
[8] = cited from earlier work
[9] = in vivo; cited from earlier work
[10] = nominal concentration about 110 mM

With `CC1(C)O[C@@H]2[C@@H](CO[C@@]3(COS(N)(=O)=O)OC(C)(C)O[C@@H]23)O1` [topiramate sodium trihydrate] the Tmax ([1]; male, Sprague-Dawley, plasma, oral capsule, 30 mg/kg free topiramate equivalent, first time point, read-out: time of peak plasma concentration (tmax)) was 30 min, the “plasma profile, comparison in words” value ([1]; oral, 30 mg/kg, FIG. 10) was “comparable to an oral solution of TOPAMAX®” and the pH of solution [2] was “about 11.2”. The solubility ([3]; THF, room temperature (slight overestimate), read-out: Solubility (amount of solid in mL of solvent)) was 44.2 mg/mL, the solubility ([3]; ethanol, room temperature, read-out: Solubility (amount of solid in mL of solvent)) was 376 mg/mL and the solubility ([3]; methanol, room temperature, single trials, read-out: Solubility (amount of solid in mL of solvent)) was 1280 mg/mL. The “Solubility (amount of solid in mL of solvent)” value ([3]; methanol, room temperature, single trials) was 1600 mg/mL and 1530 mg/mL, the solubility ([3]; methanol, room temperature, read-out: Average Solubility) was 1470 mg/mL and the “aqueous solubility relative to topiramate” value ([3]; vs. literature value of […]) was “over 100 times”. For the same compound, the solubility ([3]; water, FIG. 6, read-out: aqueous solubility) was 1300 mg/mL, the solubility ([3]; water, room temperature, single trials, read-out: Solubility (amount of solid in mL of solvent)) was 1240 mg/mL and the “Solubility (amount of solid in mL of solvent)” value ([3]; water, room temperature, single trials) was 1435 mg/mL. For the same compound, the solubility ([3]; water, room temperature, read-out: Average Solubility) was 1330 mg/mL, the “chemical degradation by HPLC” value ([4]; 2 weeks at 25° C./<5% RH, 25° C./31% RH, 25° C./75% RH, 40° C./ambient RH, or 40° C./75% RH) was “No chemical degradation” and the “chemical degradation by HPLC” value ([4]; >12 weeks at 25° C./<5% RH, 25° C./31% RH, 25° C./75% RH, or 40° C./75% RH) was “No chemical degradation”. For the same compound, the “chemical degradation by HPLC” value ([4]; stored at or above 60° C. for at least 2 weeks) was “Degradates were observed”, the “solubility at the equilibrium condition relative to (1) and (3)” value [5] was “increased solubility” and the “state at the end of the dissolution experiment” value ([5]; listed as topiramate sodium salt trihydrate, sodium trihydrate) was “not saturated”. For the same compound, the “pH at the equilibrium condition” value [5, 10] was 9.5, the “Physical stability result (solid form)” value ([6]; 5 °C, ambient RH (refrigerated)) was “Trihydrate” and the “Physical stability result (solid form)” value ([6]; 25 °C, 31% RH) was “Trihydrate”. The “Physical stability result (solid form)” value ([6]; 25 °C, 75% RH) was “Trihydrate”, the “Physical stability result (solid form)” value ([6]; 25 °C, <5% RH) was “Trihydrate & some amorphous” and the “Physical stability result (solid form)” value ([6]; 40 °C, 75% RH) was “Trihydrate”. For the same compound, the “Physical stability result (solid form)” value ([6]; 40 °C, ambient RH (<20)) was “Trihydrate”, the “Physical stability result (solid form)” value ([6]; 60 °C, ambient RH (<10)) was “Amorphous” and the “Physical stability result (solid form)” value ([6]; 80 °C, ambient RH (<5)) was “Amorphous”. For the same compound, the “temperature up to which the hydrate stays intact” value ([6]; by TGA) was no more than 40 °C.

For `CC1(C)O[C@@H]2[C@@H](CO[C@@]3(COS(N)(=O)=O)OC(C)(C)O[C@@H]23)O1` [topiramate, 2,3:4,5-Di-O-isopropylidene-β-D-fructopyranose sulfamate], the blocking kindled seizures [7] is given as “effective in blocking kindled seizures”, the “solubility in acetone, chloroform, dimethylsulfoxide, and ethanol” value [8] is given as “freely soluble” and the “state at the end of the dissolution experiment” value ([5]; listed as topiramate crystal form) is given as “remained as suspensions”. The “time at which dissolution was essentially complete” value [5, 10] was 5 min and the “time to reach peak plasma levels” value [9] was “about two”.
